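Briefly, cells in 96-well plates were exposed to five compound concentrations for 48 h, and endpoints were estimated by linear interpolation. GI50 is the concentration that inhibits growth by half. TGI: total growth inhibition.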
Legend:
Experiment in all cases: NCI anticancer screen, dose series, 48 h
[1] = test system: NCI/ADR-RES ovarian
[2] = test system: OVCAR-5 ovarian
[3] = test system: CCRF-CEM leukemia
[4] = test system: ACHN renal
[5] = test system: SK-MEL-5 melanoma
[6] = test system: HS 578T breast
[7] = test system: RPMI-8226 leukemia
[8] = test system: SF-268 CNS
[9] = test system: COLO 205 colon
[10] = test system: TK-10 renal

Structure (SMILES) | GI50 [1] | TGI [1] | GI50 [2] | TGI [2] | GI50 [3] | TGI [3] | GI50 [4] | TGI [4] | GI50 [5] | TGI [5] | GI50 [6] | TGI [6] | GI50 [7] | TGI [7] | GI50 [8] | TGI [8] | GI50 [9] | TGI [9] | GI50 [10] | TGI [10]
O=C(c1ccc2ncc(-c3nc(NC4CC4)ncc3F)n2c1)N1CCOCC1 | 2.92 µM | 19.2 µM | 2.16 µM | 8.97 µM | 1.72 µM | 4.74 µM | 1.56 µM | 12.4 µM | 2.6 µM | 8.53 µM | 2.21 µM | 8.04 µM | 1.98 µM | 5.32 µM | 2.53 µM | 7.12 µM |  |  |  | 
NC1CCN(c2nc(Nc3cccc(C(F)(F)F)c3)c3c(=O)[nH]ccc3n2)CC1 | 1.87 µM | 3.63 µM | 1.68 µM | 3.44 µM | 1.26 µM | 6.88 µM | 0.944 µM | 2.21 µM | 1.54 µM | 2.9 µM | 1.64 µM | 4.26 µM | 1.91 µM | 4.84 µM |  |  | 1.4 µM | 2.82 µM | 1.3 µM | 2.72 µM
Cc1c(C(=O)NCCO)[n+](=O)c2cc(Cl)ccc2n1[O-] |  |  |  | > 100 µM |  | > 100 µM |  | > 100 µM |  | > 100 µM |  |  |  | > 100 µM |  | > 100 µM |  | > 100 µM |  | > 100 µM
CN(CN1C(=O)C2Cc3ccccc3CN2C1=O)c1ccccn1 (stereo unspecified) |  |  |  | > 100 µM |  | > 100 µM |  | > 100 µM |  | > 100 µM |  |  |  | > 100 µM |  | > 100 µM |  | > 100 µM |  | > 100 µM
Nc1ccc2c(c1)NCCN2 |  | > 100 µM |  | > 100 µM |  |  |  | > 100 µM |  | 46.8 µM |  | > 100 µM |  | > 100 µM |  | > 100 µM |  | > 100 µM |  | > 100 µM
Cn1c(=O)nc2n(-c3cccc(F)c3)c3ccccc3nc-2c1=O |  |  |  | 74.4 µM |  | 56.7 µM |  | 68.2 µM |  | 27.3 µM |  |  |  | 72.6 µM |  | > 100 µM |  | 19 µM |  | > 100 µM
Nc1nnc2cc(Cl)ccc2n1 | > 100 µM | > 100 µM | > 100 µM | > 100 µM | > 100 µM | > 100 µM | > 100 µM | > 100 µM | > 100 µM | > 100 µM | 24.6 µM | > 100 µM | > 100 µM | > 100 µM | > 100 µM | > 100 µM | > 100 µM | > 100 µM |  | 
CCNC(=O)C#CC(=O)NCC |  |  | > 10 µM | > 100 µM | > 10 µM | > 72.3 µM | > 10 µM | > 100 µM | > 10 µM | > 100 µM |  |  | > 10 µM | > 62.8 µM | > 10 µM | > 100 µM |  | > 100 µM | > 10 µM | > 100 µM
CC(=O)OCCOCNC(=S)N/N=C(\C)c1cnc2ccccc2n1 |  |  |  | 61.3 µM |  | 90.2 µM |  | > 100 µM |  | > 100 µM |  |  |  | > 100 µM |  | > 100 µM |  | 36.9 µM |  | > 100 µM
C=C=C(CC)C(C(=O)OC)N(CC)CC (stereo unspecified) |  |  |  |  |  | > 100 µM |  | > 100 µM |  | > 100 µM |  |  |  | > 100 µM |  | > 100 µM |  | > 100 µM |  | > 100 µM
O=C1C[C@@H]2C(COC(=O)c3ccccc3)N(OCc3ccccc3)C[C@@H]2O1 (stereo partly specified) |  |  |  | > 100 µM |  | > 100 µM |  | > 100 µM |  | > 100 µM |  |  |  |  |  | > 100 µM |  | > 100 µM |  | > 100 µM
COc1ccc2c(c1OC)C1=C(C2=O)c2cc3c(cc2CCN1)OCO3 |  |  |  | 97.4 µM |  | > 100 µM |  | > 100 µM |  | 84.3 µM |  |  |  | 59.3 µM |  | > 100 µM |  | > 100 µM |  | > 100 µM
CN1NC2(CCCCC2)ON=C1c1ccccc1 |  |  |  | > 100 µM |  | > 100 µM |  | > 100 µM |  | > 100 µM |  |  |  |  |  | > 100 µM |  | > 100 µM |  | > 100 µM
C(=N\OCc1ccccc1)/c1ncccc1C1OCCO1 |  |  |  | > 100 µM |  | > 100 µM |  | > 100 µM |  | > 100 µM |  |  |  |  |  | > 100 µM |  | > 100 µM |  | > 100 µM
Cc1c(C(=O)c2ccccc2C(=O)O)c2ccccc2n1C |  |  |  | > 100 µM |  | > 100 µM |  | > 100 µM |  | > 100 µM |  |  |  | > 100 µM |  |  |  |  |  | > 100 µM
CC(=O)O[C@H]1CC[C@@]2(C)C(=CC[C@H]3C4=CC=C(C(C)=O)[C@@]4(C)CCC32)C1 (stereo partly specified) |  |  |  | > 100 µM |  | > 100 µM |  | > 100 µM |  | 40.3 µM |  |  |  | > 100 µM |  | > 100 µM |  | 39.6 µM |  | > 100 µM
CN(C)C(N)=NC#N |  |  |  | > 100 µM |  |  |  | > 100 µM |  | > 100 µM |  |  |  | > 100 µM |  | > 100 µM |  | > 100 µM |  | > 100 µM
CC(=O)O[C@H]1CC[C@@]2(C)C(=CC[C@H]3[C@@H]4C/C(=C\c5cccc(OCCN6CCOCC6)c5)[C@H](OC(C)=O)[C@@]4(C)CC[C@@H]32)C1 |  |  | 15 µM | 56.2 µM | 3.87 µM | 16.7 µM | 13.8 µM | 42.9 µM | 10.5 µM | 22.3 µM | 3.07 µM | 10.9 µM | 2.99 µM | 9.92 µM | 12.6 µM | 58.8 µM | 6.46 µM | 19.4 µM | 11.6 µM | 48.7 µM
CCCCNN |  | > 100 µM |  | > 100 µM |  | > 100 µM |  | > 100 µM |  | > 100 µM |  | > 100 µM |  | > 100 µM |  |  |  | > 100 µM |  | > 100 µM
CCC(=O)C(C)C1=Nc2nnc(CCCCCCCc3nnc4n3C(=O)C(C(C)C(=O)CC)=N4)n2C1=O (stereo unspecified) |  |  |  | > 100 µM |  | > 100 µM |  | > 100 µM |  | > 100 µM |  |  |  | > 100 µM |  | > 100 µM |  | > 100 µM |  | > 100 µM
Cc1ccc(S(=O)(=O)NC(=O)NC23CC4CC(CC(F)(C4)C2)C3)cc1 |  |  |  | > 100 µM |  | > 100 µM |  | > 100 µM |  | > 100 µM |  |  |  | > 100 µM |  |  |  | > 100 µM |  | > 100 µM
C1CCN(c2nsc(N3CCCCC3)n2)CC1 |  |  |  | > 100 µM |  | > 100 µM |  | > 100 µM |  | > 100 µM |  |  |  | > 100 µM |  | > 100 µM |  |  |  | > 100 µM
COc1cccc(NC(=O)CC(=O)N2N=C(N(CCC#N)c3ccccc3C)CC2c2ccccc2)c1 (stereo unspecified) |  |  |  | > 100 µM |  | > 100 µM |  | > 100 µM |  | > 100 µM |  |  |  | > 100 µM |  | > 100 µM |  | > 100 µM |  | 
